Reference: paper PMC12313340, “Functional analysis of a UDP-glucosyltransferase gene contributing to biosynthesis of the flavonol triglycoside in tea plants” (Horticulture Research, 2025)

What was measured:
CsFGT (rCsFGT) [1] = biological target: T1, CsFGT (rCsFGT) (Camellia sinensis, UniProt A0A0X9FCW5, E292Q); test: product formation by HPLC; assay type: biochemical; conditions: co-substrate UDP-glc
T1 construct: gene UGT91Q1; N-terminal 6xHis-trigger factor fusion (pCold-TF), about 105 kDa; E. coli Origami (DE3); tag not removed for kinetics
T1 sequence (A0A0X9FCW5 entry or part of it E292Q): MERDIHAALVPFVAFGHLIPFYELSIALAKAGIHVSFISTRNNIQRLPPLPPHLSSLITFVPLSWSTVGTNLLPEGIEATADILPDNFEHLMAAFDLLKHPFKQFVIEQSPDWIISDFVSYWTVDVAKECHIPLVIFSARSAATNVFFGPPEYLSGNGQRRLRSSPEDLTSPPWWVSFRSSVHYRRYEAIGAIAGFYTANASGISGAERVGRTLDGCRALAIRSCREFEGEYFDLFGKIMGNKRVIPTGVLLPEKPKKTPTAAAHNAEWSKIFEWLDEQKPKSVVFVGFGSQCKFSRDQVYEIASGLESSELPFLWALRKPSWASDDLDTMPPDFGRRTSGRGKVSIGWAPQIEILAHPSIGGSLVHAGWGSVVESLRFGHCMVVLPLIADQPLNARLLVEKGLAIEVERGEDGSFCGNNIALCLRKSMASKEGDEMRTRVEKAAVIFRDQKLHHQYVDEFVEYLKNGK

CsFGT (rCsFGT) [2] = biological target: T2, CsFGT (rCsFGT) (Camellia sinensis, UniProt A0A0X9FCW5, S291G); test: product formation by HPLC; assay type: biochemical; conditions: co-substrate UDP-glc
T2 construct: gene UGT91Q1; N-terminal 6xHis-trigger factor fusion (pCold-TF), about 105 kDa; E. coli Origami (DE3); tag not removed for kinetics
T2 sequence (A0A0X9FCW5 entry or part of it S291G): as the sequence (A0A0X9FCW5 entry or part of it E292Q) above, with S291G, Q292E counted along it

CsFGT (rCsFGT) [3] = biological target: T3, CsFGT (rCsFGT) (Camellia sinensis, UniProt A0A0X9FCW5, Q352A); test: product formation by HPLC; assay type: biochemical; conditions: co-substrate UDP-glc
T3 construct: gene UGT91Q1; N-terminal 6xHis-trigger factor fusion (pCold-TF), about 105 kDa; E. coli Origami (DE3); tag not removed for kinetics
T3 sequence (A0A0X9FCW5 entry or part of it Q352A): as the sequence (A0A0X9FCW5 entry or part of it E292Q) above, with Q292E, Q352A counted along it

CsFGT (rCsFGT) [4] = biological target: T4, CsFGT (rCsFGT) (Camellia sinensis, UniProt A0A0X9FCW5, R319N); test: product formation by HPLC; assay type: biochemical; conditions: co-substrate UDP-glc
T4 construct: gene UGT91Q1; N-terminal 6xHis-trigger factor fusion (pCold-TF), about 105 kDa; E. coli Origami (DE3); tag not removed for kinetics
T4 sequence (A0A0X9FCW5 entry or part of it R319N): as the sequence (A0A0X9FCW5 entry or part of it E292Q) above, with Q292E, R319N counted along it

CsFGT (rCsFGT) [5] = biological target: T5, CsFGT (rCsFGT) (Camellia sinensis, UniProt A0A0X9FCW5, G290A); test: product formation by HPLC; assay type: biochemical; conditions: co-substrate UDP-glc
T5 construct: gene UGT91Q1; N-terminal 6xHis-trigger factor fusion (pCold-TF), about 105 kDa; E. coli Origami (DE3); tag not removed for kinetics
T5 sequence (A0A0X9FCW5 entry or part of it G290A): as the sequence (A0A0X9FCW5 entry or part of it E292Q) above, with G290A, Q292E counted along it

CsFGT (rCsFGT) [6] = biological target: T6, CsFGT (rCsFGT) (Camellia sinensis, UniProt A0A0X9FCW5, Q352I); test: product formation by HPLC; assay type: biochemical; conditions: co-substrate UDP-glc
T6 construct: gene UGT91Q1; N-terminal 6xHis-trigger factor fusion (pCold-TF), about 105 kDa; E. coli Origami (DE3); tag not removed for kinetics
T6 sequence (A0A0X9FCW5 entry or part of it Q352I): as the sequence (A0A0X9FCW5 entry or part of it E292Q) above, with Q292E, Q352I counted along it

CsFGT (rCsFGT) [7] = biological target: T7, CsFGT (rCsFGT) (Camellia sinensis, UniProt A0A0X9FCW5, E292T); test: product formation by HPLC; assay type: biochemical; conditions: co-substrate UDP-glc
T7 construct: gene UGT91Q1; N-terminal 6xHis-trigger factor fusion (pCold-TF), about 105 kDa; E. coli Origami (DE3); tag not removed for kinetics
T7 sequence (A0A0X9FCW5 entry or part of it E292T): as the sequence (A0A0X9FCW5 entry or part of it E292Q) above, with Q292T counted along it

CsFGT (rCsFGT) [8] = biological target: T8, CsFGT (rCsFGT) (Camellia sinensis, UniProt A0A0X9FCW5, R319P); test: product formation by HPLC; assay type: biochemical; conditions: co-substrate UDP-glc
T8 construct: gene UGT91Q1; N-terminal 6xHis-trigger factor fusion (pCold-TF), about 105 kDa; E. coli Origami (DE3); tag not removed for kinetics
T8 sequence (A0A0X9FCW5 entry or part of it R319P): as the sequence (A0A0X9FCW5 entry or part of it E292Q) above, with Q292E, R319P counted along it

[9] = substrate: C[C@@H]1O[C@@H](OC[C@H]2O[C@@H](Oc3c(-c4ccc(O)c(O)c4)oc4cc(O)cc(O)c4c3=O)[C@H](O)[C@@H](O)[C@@H]2O)[C@H](O)[C@H](O)[C@H]1O; test: UDP-Glo glycosyltransferase assay, Michaelis-Menten fit; assay type: biochemical, Camellia sinensis; conditions: 1 mM UDP-glucose, 50 mM phosphate pH 8.0, 30°C, 10 min
Source text: (§1) UDP-Glo glycosyltransferase assay, Michaelis-Menten fit on CsFGT (rCsFGT)

[10] = substrate: Oc1cc(O)c2cc(O)c(-c3cc(O)c(O)c(O)c3)[o+]c2c1; test: as above; assay type: biochemical, Camellia sinensis; conditions: 1 mM UDP-galactose, pH 8.0, 30°C, 10 min, galactosyl transfer
Source text: as §1

[11] = substrate: O=c1ccn([C@@H]2O[C@H](COP(=O)(O)OP(=O)(O)O[C@H]3O[C@H](CO)[C@H](O)[C@H](O)[C@H]3O)[C@@H](O)[C@H]2O)c(=O)[nH]1; test: as above; assay type: biochemical, Camellia sinensis; conditions: co-substrate delphinidin, pH 8.0, 30°C, 10 min, galactosyl transfer
Source text: as §1

[12] = substrate: O=c1ccn([C@@H]2O[C@H](CO[P@@](=O)(O)O[P@@](=O)(O)O[C@H]3O[C@H](CO)[C@@H](O)[C@H](O)[C@H]3O)[C@@H](O)[C@H]2O)c(=O)[nH]1; test: as above; assay type: biochemical, Camellia sinensis; conditions: 100 μM Q-g-r (rutin), 50 mM phosphate pH 8.0, 30°C, 10 min
Source text: as §1

## C[C@@H]1O[C@@H](OC[C@H]2O[C@@H](Oc3c(-c4ccc(O)c(O)c4)oc4cc(O)cc(O)c4c3=O)[C@H](O)[C@@H](O)[C@@H]2O)[C@H](O)[C@H](O)[C@H]1O [Q-g-r]
CsFGT (rCsFGT) [1]
  relative enzymatic activity: mutants with activity unchanged or enhanced (G290A, S291G, E292Q, R319N, and R319P)
CsFGT (rCsFGT) [2]
  relative enzymatic activity: mutants with activity unchanged or enhanced (G290A, S291G, E292Q, R319N, and R319P)
CsFGT (rCsFGT) [3]
  relative enzymatic activity: E292T, Q352A, and Q352I mutants exhibited significantly decreased activity
CsFGT (rCsFGT) [4]
  relative enzymatic activity: the mutant R319N had significantly enhanced activity
CsFGT (rCsFGT) [5]
  relative enzymatic activity: mutants with activity unchanged or enhanced (G290A, S291G, E292Q, R319N, and R319P)
CsFGT (rCsFGT) [6]
  relative enzymatic activity: E292T, Q352A, and Q352I mutants exhibited significantly decreased activity
CsFGT (rCsFGT) [7]
  relative enzymatic activity: E292T, Q352A, and Q352I mutants exhibited significantly decreased activity
CsFGT (rCsFGT) [8]
  relative enzymatic activity: mutants with activity unchanged or enhanced (G290A, S291G, E292Q, R319N, and R319P)

B1: CsFGT (rCsFGT) (Camellia sinensis) (protein)
chain: MERDIHAALVPFVAFGHLIPFYELSIALAKAGIHVSFISTRNNIQRLPPLPPHLSSLITFVPLSWSTVGTNLLPEGIEATADILPDNFEHLMAAFDLLKHPFKQFVIEQSPDWIISDFVSYWTVDVAKECHIPLVIFSARSAATNVFFGPPEYLSGNGQRRLRSSPEDLTSPPWWVSFRSSVHYRRYEAIGAIAGFYTANASGISGAERVGRTLDGCRALAIRSCREFEGEYFDLFGKIMGNKRVIPTGVLLPEKPKKTPTAAAHNAEWSKIFEWLDEQKPKSVVFVGFGSECKFSRDQVYEIASGLESSELPFLWALRKPSWASDDLDTMPPDFGRRTSGRGKVSIGWAPQIEILAHPSIGGSLVHAGWGSVVESLRFGHCMVVLPLIADQPLNARLLVEKGLAIEVERGEDGSFCGNNIALCLRKSMASKEGDEMRTRVEKAAVIFRDQKLHHQYVDEFVEYLKNGK
notes: N-terminal 6xHis-trigger factor fusion (pCold-TF), about 105 kDa; E. coli Origami (DE3); tag not removed for kinetics
[9]
  Km: 50.3 ± 9.7 µM
  kcat/Km: 610000 M⁻¹ s⁻¹
[10]
  Km: 902.5 ± 109.0 µM
  kcat/Km: 24000 M⁻¹ s⁻¹
[11]
  Km: 1143.3 ± 313.5 µM
  kcat/Km: 3100 M⁻¹ s⁻¹
[12]
  Km: 209.7 ± 43.9 µM
  kcat/Km: 110000 M⁻¹ s⁻¹
